According to patent publication US7273896B2, “Compositions and methods of using a transient colorant” (Angiotech Pharmaceuticals (US), Inc., priority 2003, dated 2007):

Experiment: Solubility of fluorescein in COH102 and COH206 buffer
Assay type: physicochemical
Conditions: 0.1% in COH102 and COH206 buffer
Procedure: General Procedures. Transient colorants were subjected to irradiation or other sterilization methods to determine if they would be stable. Standard chemical mixing, measuring, and analytical methods were utilized. Solubilities for effective amounts of transient colorants mixed in starting materials (and in the final compositions) were verified by routine mixing followed by analytical procedures.
Fluorescein was tested at 0.1% in COH102 and COH206 buffer and found to be soluble. To test in COSEAL®, one-fifth volume of COH102 buffer was replaced with 0.1% to 1.0% fluorescein in COH102 buffer, and the PEGs, COH102, and COH206 were added and dissolved. The fluorescence was noted to go away upon dissolving the mixed PEGs, and the color changed to a light yellow. However, when the solution was sprayed with COH206 buffer to make the reaction product COSEAL®, the fluorescence returned. The final fluorescein concentration was 0.01% to 0.1% by weight of the final composition.

O=C1OC2(c3ccc(O)cc3Oc3cc(O)ccc32)c2ccccc21 [Fluorescein, fluorescein]
solubility: soluble
